Test results taken from patent publication US20070207967A1, “Peptide Inhibitors of Matrix Metalloproteinase Activity” (CTT CANCER TARGETING TECHNOLOGIES OY, priority 2004, published 2007).
Blank lines part the entries; values can stand above or below the molecule they belong to.

Assays:
[1] = molecular target: T1, pro-MMP-9 (Homo sapiens, UniProt P14780); test: Phage binding to pro-MMP-9 with competitors; settings: competitor peptides 20 μM, gelatin 2.5 μg/ml; for Binding of the CRV-phage to pro-MMP-9, competition: TIMP-1 2.5 μg/ml
Method: (§1) Phage display. Phage display selections were made using random peptide libraries CX7-10C and X9-10 (13). Purified human pro-MMP-9 (9) or recombinant MMP-9 C domain (2 μg/ml) was immobilized on microtiter wells and the wells were blocked with BSA. The phage were added in 50 mM Hepes (pH 7.5)/5 mM CaCl2/1 μM ZnCl2/150 mM NaCl/2% BSA. After three rounds of selection the phage sequences were determined (14). The phage binding specificity was tested with pro-MMPs or the recombinant domains (20 ng/well). The phage (10^8 transducing units/well) were allowed to bind in the absence or presence of competitor peptides (20 μM), gelatin (2.5 μg/ml) or TIMP-1 (2.5 μg/ml, Calbiochem) followed by washings with PBS/0.05% Tween20 (PBST). The phage were detected with a peroxidase-conjugated anti-phage antibody (Amersham Biosciences).

[2] = molecular target: T2, CBD (Homo sapiens, UniProt P14780); test: Gelatin binding to immobilized CBD; settings: biotinylated gelatin
T2 construct: CBD (amino acids Gly^204-Gly^373) was amplified from MMP-9 cDNA; made in house; host or cells: E. coli
Method: (§2) Gelatin and CBD binding assays. Recombinant CBD or human plasma fibronectin (Calbiochem) (0.2 μg/ml in TBS) was immobilized in microtiter wells. The wells were saturated with 1% BSA-PBST. Biotinylated gelatin (0.2 μg/ml in 1% BSA-PBST) was added with or without peptides at the concentrations indicated or with an excess of unlabelled gelatin (10 μg/ml) and allowed to bind for 1 h. Bound gelatin was detected with streptavidin-peroxidase. CBD binding to immobilized fibronectin, the 110-kDa fragment of fibronectin (Upstate Biotechnology) or urea-denaturated human plasma vitronectin (17) (1 μg/well) was studied using biotinylated CBD (5 μg/ml) in 1% BSA-PBST in the presence or absence of 20 μM peptides.

[3] = test system: HT1080 fibrosarcoma; test: HT1080 invasion through matrigel; assay type: cell-based, human
Method: (§3) Cell migration and invasion. The cell migration assay was conducted using transwell migration chambers (8 μm pore size, Costar) in 10% serum-containing medium (2,14). Briefly, the membranes were coated on both sides with 40 μg/ml GST or with the β2 integrin ligand peptide […]-GST fusion (GST-LLG-C4) and blocked with complete medium. THP-1 cells (50 000/100 μl) were preincubated with the peptides for 1 h in serum-containing medium. The cells were allowed to migrate for 16 h and were then stained with crystal violet and counted (14). The HT1080 (20 000 cells/I100 μl) invasion assay was performed as the THP-1 migration, except that matrigel coated transwells (BD Biosciences) were used.

[4] = test system: THP-1 monocytic cells; test: THP-1 cell migration on GST-LLG-C4; assay type: cell-based, human; settings: GST-LLG-C4 substratum, 16 h
Method: as §3

[5] = test system: HT1080 cells; test: Pericellular proteolysis (gelatinolysis) of HT1080 cells; assay type: cell-based, human; settings: HT1080, 48 h, PDBu, fibronectin/FITC-labelled gelatin coating
Method: Pericellular proteolysis. Microtiter wells were coated with a mixture of fibronectin (10 μg/ml) and FITC-labelled gelatin (100 μg/ml) followed by saturation with 1% BSA in PBS. HT1080 cells (50 000 in 100 μl 0.1% BSA/DMEM) were incubated in the presence of 20 nM PDBu (4β-phorbol-12,13-dibutyrate, SigmaAldrich) and the peptides or the MMP-2/MMP-9 selective inhibitor InhI (Calbiochem). As a control non-activated cells and medium without the cells were used. Gelatinolysis after 48 hours was measured as the increase of fluorescence from a 50 μl aliquot of the conditioned medium using Wallac Victor^2 reader.

[6] = test system: uPAR; test: uPAR cleavage on THP-1 cells; assay type: cell-based, human; settings: InhI 20 μM, CTT 200 μM, aprotinin 25 μg/ml
Excerpt: (§4) uPAR clevage. […] Chymotrypsin cleavage was done without aprotinin.

[7] = test system: gelatinase; settings: 100 μM concentration; ref (15); cited from earlier work
[8] = molecular target: trypsin-activated MMP-9 (Homo sapiens, UniProt P14780); test: Gelatinase inhibition assay (gelatin degradation), MMP-9; assay type: biochemical; settings: biotinylated gelatin substrate
Method: (§5) Gelatinase inhibition assay. Inhibition of aminophenylmercuric acetate (APMA)-activated MMP-2 and trypsin-activated MMP-9 was performed using biotinylated gelatin as a substrate (15).

[9] = molecular target: T3, aminophenylmercuric acetate (APMA)-activated MMP-2 (Homo sapiens, UniProt P08253); test: Gelatinase inhibition assay (gelatin degradation), MMP-2; assay type: biochemical; settings: biotinylated gelatin substrate
T3 sequence (P08253 110-660): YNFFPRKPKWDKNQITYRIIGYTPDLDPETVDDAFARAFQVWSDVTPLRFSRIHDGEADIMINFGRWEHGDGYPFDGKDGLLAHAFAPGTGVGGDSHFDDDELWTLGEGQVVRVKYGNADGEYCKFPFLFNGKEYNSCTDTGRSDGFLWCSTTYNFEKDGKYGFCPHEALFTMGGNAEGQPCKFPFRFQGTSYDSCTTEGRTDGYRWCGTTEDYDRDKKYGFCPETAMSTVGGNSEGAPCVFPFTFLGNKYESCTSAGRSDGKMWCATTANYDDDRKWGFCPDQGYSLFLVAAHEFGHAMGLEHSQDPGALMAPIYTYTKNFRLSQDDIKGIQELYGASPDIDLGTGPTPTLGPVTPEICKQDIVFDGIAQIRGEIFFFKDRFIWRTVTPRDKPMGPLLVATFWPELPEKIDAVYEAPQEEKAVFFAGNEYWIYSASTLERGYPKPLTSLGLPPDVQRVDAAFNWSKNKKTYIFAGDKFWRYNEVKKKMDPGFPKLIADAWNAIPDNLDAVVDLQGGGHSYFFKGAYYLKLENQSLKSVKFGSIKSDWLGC
Method: as §5

[10] = molecular target: T2, CBD; test: Pepspot membrane assay of CBD binding; settings: 0.2 μg/ml biotinylated CBD
Method: Peptide synthesis. The phage peptides were initially prepared in a recombinant form using intein fusions (12,15). Chemical peptide synthesis was done using Fmoc-chemistry and the purity and integrity of the peptides was verified by mass spectroscopy (15). The peptides were dissolved in water, except the CRV and DDGW peptides, which were dissolved in 50 mM NaOH at a 10 mM concentration and then diluted into PBS to neutralize the pH. The […] and […] peptides were synthesized on a cellulose membrane. The membrane was blocked with 3% BSA in TBS/0.05% Tween 20, and incubated with 0.2 μg/ml biotinylated CBD. Bound CBD was detected using peroxidase-conjugated streptavidin (1:10 000 dilution, Pierce) and chemiluminescence detection.

[11] = test system: fibronectin; test: Gelatin binding to fibronectin; design: species or system human; settings: data not shown
Method: as §2

[12] = test system: gelatinase; test: Gelatin degradation assay, gelatinase not specified; assay type: biochemical
Method: as §5

[13] = molecular target: T2, CBD; test: CBD binding to fibronectin and vitronectin, solid phase; settings: 20 μM peptides, biotinylated CBD
Method: as §2

[14] = molecular target: αM integrin I domain (Homo sapiens, UniProt P11215); test: Pro-MMP-9 binding to αM integrin I domain
Method: Pro-MMP-9 and gelatin binding to leukocyte αM integrin. Pro-MMP-9 binding to the αM I domain in the presence of peptides was studied as described (12). Gelatin binding to the pro-MMP-^9/αMβ2 integrin complex was studied by immobilizing the integrin αMβ2 (12) or αIIbβ3 as a control (Enzyme Research Laboratories, South Bend, Ind.) (1 μg/well) in TBS/1 mM CaCl2/1 mM MgCl2 followed by saturation of the wells with 1% BSA in PB ST. Pro-MMP-9 (100 ng/well) was incubated for 2 h and the unbound pro-MMP-9 was washed away. Biotinylated gelatin (2.5 μg/ml) was allowed to bind for 30 min at room temperature. Bound gelatin was detected with streptavidin-peroxidase.

[15] = molecular target: T1, pro-MMP-9; test: Pro-MMP-9 activation in THP-1 cells, zymography; assay type: cell-based; settings: THP-1, pro-MMP-3 and plasminogen, peptides 200 μM
Method: Activation of MMP-9. THP-1 cells (40 000/100 μl) or confluent HT1080 cells were incubated for 16 h in the presence or absence of 2.5 μg/ml plasminogen, 0.5 μg/ml pro-MMP-3 (Oncogene Research Products), 40 nM PDBu, and the peptides at a 200 μM concentration unless otherwise indicated. Aliquots of the conditioned media were analyzed by gelatin zymography (9). […] The samples were analyzed by gelatin zymography.

[16] = test system: uPAR; test: uPAR cleavage on HT1080 cells; assay type: cell-based, human; settings: for Inhibition of uPAR cleavage: HT1080, InhI 20 μM, aprotinin 25 μg/ml, benzamidine 20 μM, 48 h
Excerpt: as §4

[17] = molecular target: T4, MMP-9 C domain (Homo sapiens, UniProt P14780); test: CRV phage binding to recombinant MMP-9 C domain; settings: TIMP-1 2.5 μg/ml
T4 construct: MMP-9 (Asp^494-Asp^688) were expressed as described (16); made in house; host or cells: E. coli (β5 fragment)
T4 sequence (P14780 513-707 limits assumed): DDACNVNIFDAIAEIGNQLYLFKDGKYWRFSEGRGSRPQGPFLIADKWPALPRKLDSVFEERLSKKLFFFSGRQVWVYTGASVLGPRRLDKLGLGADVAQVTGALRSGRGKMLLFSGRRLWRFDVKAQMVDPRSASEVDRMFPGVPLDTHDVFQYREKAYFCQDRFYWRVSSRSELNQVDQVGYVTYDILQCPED
Method: as §1
Expression of the MMP and integrin domains. CBD (amino acids Gly^204-Gly^373) was amplified from MMP-9 cDNA with the oligonucleotides 5′-[…]-3′ and 5′-[…]-3′ incorporating NdeI and PstI restriction sites. The PCR product was ligated into pTWIN vector (New England Biolabs). CBD was expressed in E. coli and purified using gelatin-sepharose (Amersham Biosciences). For some experiments, CBD was biotinylated with sulfo-NHS-LC-biotin (Pierce). The C-terminal domains of MMP-2 (Glu^438-Cys^631) and MMP-9 (Asp^494-Asp^688) were expressed as described (16). […]

T2 sequence (P14780 223-392 limits assumed): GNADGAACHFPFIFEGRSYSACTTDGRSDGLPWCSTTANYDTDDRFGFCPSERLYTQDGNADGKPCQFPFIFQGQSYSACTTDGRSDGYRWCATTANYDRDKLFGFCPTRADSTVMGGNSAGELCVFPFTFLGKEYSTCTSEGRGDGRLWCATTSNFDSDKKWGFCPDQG
T1 sequence (P14780 20-707 limits assumed): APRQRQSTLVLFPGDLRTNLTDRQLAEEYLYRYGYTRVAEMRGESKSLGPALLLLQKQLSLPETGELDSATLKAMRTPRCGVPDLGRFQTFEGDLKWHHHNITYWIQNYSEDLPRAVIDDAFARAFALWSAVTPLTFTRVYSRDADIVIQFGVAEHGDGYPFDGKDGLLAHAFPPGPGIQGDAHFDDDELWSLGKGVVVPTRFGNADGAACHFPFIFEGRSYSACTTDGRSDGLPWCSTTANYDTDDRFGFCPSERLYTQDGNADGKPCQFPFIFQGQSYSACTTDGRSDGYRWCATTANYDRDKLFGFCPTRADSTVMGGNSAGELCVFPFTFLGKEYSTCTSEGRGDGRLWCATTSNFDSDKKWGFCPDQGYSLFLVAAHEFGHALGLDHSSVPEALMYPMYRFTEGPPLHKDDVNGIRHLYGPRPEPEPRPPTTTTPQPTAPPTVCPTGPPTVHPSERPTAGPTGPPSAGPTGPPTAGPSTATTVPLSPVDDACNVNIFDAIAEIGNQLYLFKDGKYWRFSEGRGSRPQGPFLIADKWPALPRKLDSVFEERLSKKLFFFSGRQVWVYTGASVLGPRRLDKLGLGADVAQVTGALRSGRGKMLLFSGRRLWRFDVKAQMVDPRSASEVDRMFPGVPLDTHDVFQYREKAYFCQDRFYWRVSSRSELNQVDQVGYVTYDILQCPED
Sequence of αM integrin I domain (P11215 150-328 limits assumed): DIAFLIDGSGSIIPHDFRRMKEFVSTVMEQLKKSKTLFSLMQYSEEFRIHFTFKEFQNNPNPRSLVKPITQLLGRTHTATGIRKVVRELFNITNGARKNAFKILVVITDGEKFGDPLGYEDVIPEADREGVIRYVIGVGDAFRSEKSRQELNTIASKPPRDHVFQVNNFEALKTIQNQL
Sequence of trypsin-activated MMP-9 (P14780 107-707 limits assumed): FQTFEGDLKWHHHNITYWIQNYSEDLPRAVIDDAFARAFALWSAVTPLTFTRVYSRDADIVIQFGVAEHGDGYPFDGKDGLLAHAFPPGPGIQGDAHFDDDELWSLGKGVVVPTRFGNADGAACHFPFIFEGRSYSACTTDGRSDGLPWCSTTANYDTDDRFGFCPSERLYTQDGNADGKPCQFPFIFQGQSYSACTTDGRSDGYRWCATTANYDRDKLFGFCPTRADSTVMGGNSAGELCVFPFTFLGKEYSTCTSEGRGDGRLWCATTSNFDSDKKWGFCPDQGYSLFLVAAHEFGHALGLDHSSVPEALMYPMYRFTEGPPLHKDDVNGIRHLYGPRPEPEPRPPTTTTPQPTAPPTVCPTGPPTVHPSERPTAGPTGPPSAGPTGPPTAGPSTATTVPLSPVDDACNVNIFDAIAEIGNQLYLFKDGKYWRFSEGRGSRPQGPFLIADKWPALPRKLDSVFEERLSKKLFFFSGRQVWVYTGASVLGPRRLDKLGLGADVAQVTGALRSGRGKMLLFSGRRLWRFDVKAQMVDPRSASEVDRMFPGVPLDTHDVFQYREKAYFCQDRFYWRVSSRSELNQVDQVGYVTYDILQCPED
Sequence of fibronectin (P02751 306-608 limits assumed): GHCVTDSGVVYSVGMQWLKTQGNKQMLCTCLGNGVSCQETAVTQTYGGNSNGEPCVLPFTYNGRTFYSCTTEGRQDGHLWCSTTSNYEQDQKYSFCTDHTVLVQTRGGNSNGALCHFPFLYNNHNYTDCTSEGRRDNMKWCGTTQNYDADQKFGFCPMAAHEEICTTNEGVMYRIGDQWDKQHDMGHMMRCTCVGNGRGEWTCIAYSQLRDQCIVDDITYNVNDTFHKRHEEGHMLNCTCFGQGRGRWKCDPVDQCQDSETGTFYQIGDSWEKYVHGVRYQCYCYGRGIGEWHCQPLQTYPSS

Molecule: TTPNSLLVSWQPPRARIT [PPC-like fibronectin peptide]
Binding of biotinylated CBD to peptide on pepspot membrane [10]: bound

Molecule: ADGACGYGRFSPPCGAAG
Binding of PPC peptide-bearing phage to pro-MMP-9, competition [1]: inhibited
Binding of the CRV-phage to pro-MMP-9, competition [1]: not
Inhibition of gelatin binding to immobilized CBD [2]: inhibited gelatin binding to immobilized CBD in a dose dependent manner
Effect on gelatin binding to fibronectin [11]: no effect
Inhibition of MMP-9 activity in gelatin degradation assay [8]: inhibited
Inhibition of MMP-2 activity in gelatin degradation assay [9]: inhibited
Gelatinase inhibitor strength relative to CTT [12]: weaker gelatinase inhibitor than CTT
Inhibition of CBD binding to fibronectin and vitronectin [13]: inhibited
IC50 ([3]; matrigel, read-out: Concentration required to achieve the same efficacy (50% inhibition of HT1080 invasion)): 500 µM
Inhibition of THP-1 migration [4]: inhibitory effect
Inhibition of pericellular gelatinolysis [5]: inhibited
Effect on interaction of MMP-9 with the leukocyte αM integrin I domain [14]: do not affect
Higher pro-MMP-9 binding to the I domain in the presence of peptide ([14]; typically): 20-50%
Effect on pro-MMP-9 activation [15]: augmented

Molecule: O=C(O)[C@@H](Cc1ccccc1)NS(=O)(=O)c1ccc(-c2ccccc2)cc1 [InhI]
Inhibition of pericellular gelatinolysis [5]: inhibited
Level of cell surface-bound uPA ([16]; HT1080, InhI 20 μM): reduced
Inhibition of uPAR cleavage [16]: inhibited uPAR cleavage
Inhibition of uPAR cleavage [6]: inhibited

Molecule: TIMP-1: tissue inhibitor of MMPs (Calbiochem)
Binding of the CRV-phage to pro-MMP-9, competition [1]: could not compete
CRV phage binding to the MMP-9 C domain, competition [17]: could not compete

Molecule: N=C(N)c1ccccc1 [benzamidine]
Inhibition of uPAR cleavage [16]: not

Molecule: aprotinin
Inhibition of uPAR cleavage [16]: not
Inhibition of uPAR cleavage [6]: not

Further lines, with some results ahead:

Binding of PPC peptide-bearing phage to pro-MMP-9, competition [1]: not
Binding of the CRV-phage to pro-MMP-9, competition [1]: not
Inhibition of gelatin binding to immobilized CBD [2]: not
Molecule: CTTHWGFTLC [reference compound]
Inhibition of HT1080 invasion into matrigel ([3]; 200 μM concentration): 50%
Inhibition of THP-1 migration [4]: inhibitory effect
Inhibition of pericellular gelatinolysis [5]: inhibited
Inhibition of uPAR cleavage [6]: inhibited
Inhibition of gelatin degradation [7]: completely inhibits

Inhibition of MMP-9 activity in gelatin degradation assay [8]: no effect
Inhibition of MMP-2 activity in gelatin degradation assay [9]: no effect
Molecule: ADGACPSYGPRFGCGAAG [scr. PPC, scrambled control peptide of PPC, reference compound]

Binding of PPC peptide-bearing phage to pro-MMP-9, competition [1]: inhibited
Binding of the CRV-phage to pro-MMP-9, competition [1]: not
Molecule: gelatin
